22 molecules from ChEMBL document CHEMBL1146979, “Structure-activity relationship of thiopyrimidines as mGluR5 antagonists” (Bioorg Med Chem Lett, 2006) can be followed below.

The target in data set [1] is Metabotropic glutamate receptor 5 (Homo sapiens, UniProt P41594). As to the kind of experiment: Inhibition of glutamate-induced calcium influx in human mGluR5d by FLIPR. In kind it is functional.
Data set [2] in a line: Clearance in rat liver microsomes. In kind it is ADME, Microsome. (Microsomes from liver hold many membrane-bound enzymes, among them those of drug oxidation.)
A short description of data set [3]: Clearance in human liver microsomes. In kind it is ADME, Microsome.
In data set [4] the target is Metabotropic glutamate receptor 2 (Homo sapiens) (UniProt Q14416). As to the kind of experiment: Activity against mGluR2.
In data set [5] the target is Metabotropic glutamate receptor 3 (Homo sapiens) (UniProt Q14832). As to the kind of experiment: Activity against mGluR3.
The target in data set [6] is Metabotropic glutamate receptor 1 (Homo sapiens) (UniProt Q13255). As to the kind of experiment: Activity against mGluR1.
The target in data set [7] is Metabotropic glutamate receptor 7 (Homo sapiens) (UniProt Q14831). In words: Activity against mGluR7.
Data set [8] concerns the target Metabotropic glutamate receptor 8 (Homo sapiens) (UniProt O00222). As to the kind of experiment: Activity against mGluR8.
Data set [9] has as its target Metabotropic glutamate receptor 4 (Homo sapiens) (UniProt Q14833). As to the kind of experiment: Activity against mGluR4.
Data set [10] has as its target Metabotropic glutamate receptor 6 (Homo sapiens) (UniProt O15303). As to the kind of experiment: Activity against mGluR6.

Bounds are passed on as bounds.

Sequence of Metabotropic glutamate receptor 5 (P41594 whole entry): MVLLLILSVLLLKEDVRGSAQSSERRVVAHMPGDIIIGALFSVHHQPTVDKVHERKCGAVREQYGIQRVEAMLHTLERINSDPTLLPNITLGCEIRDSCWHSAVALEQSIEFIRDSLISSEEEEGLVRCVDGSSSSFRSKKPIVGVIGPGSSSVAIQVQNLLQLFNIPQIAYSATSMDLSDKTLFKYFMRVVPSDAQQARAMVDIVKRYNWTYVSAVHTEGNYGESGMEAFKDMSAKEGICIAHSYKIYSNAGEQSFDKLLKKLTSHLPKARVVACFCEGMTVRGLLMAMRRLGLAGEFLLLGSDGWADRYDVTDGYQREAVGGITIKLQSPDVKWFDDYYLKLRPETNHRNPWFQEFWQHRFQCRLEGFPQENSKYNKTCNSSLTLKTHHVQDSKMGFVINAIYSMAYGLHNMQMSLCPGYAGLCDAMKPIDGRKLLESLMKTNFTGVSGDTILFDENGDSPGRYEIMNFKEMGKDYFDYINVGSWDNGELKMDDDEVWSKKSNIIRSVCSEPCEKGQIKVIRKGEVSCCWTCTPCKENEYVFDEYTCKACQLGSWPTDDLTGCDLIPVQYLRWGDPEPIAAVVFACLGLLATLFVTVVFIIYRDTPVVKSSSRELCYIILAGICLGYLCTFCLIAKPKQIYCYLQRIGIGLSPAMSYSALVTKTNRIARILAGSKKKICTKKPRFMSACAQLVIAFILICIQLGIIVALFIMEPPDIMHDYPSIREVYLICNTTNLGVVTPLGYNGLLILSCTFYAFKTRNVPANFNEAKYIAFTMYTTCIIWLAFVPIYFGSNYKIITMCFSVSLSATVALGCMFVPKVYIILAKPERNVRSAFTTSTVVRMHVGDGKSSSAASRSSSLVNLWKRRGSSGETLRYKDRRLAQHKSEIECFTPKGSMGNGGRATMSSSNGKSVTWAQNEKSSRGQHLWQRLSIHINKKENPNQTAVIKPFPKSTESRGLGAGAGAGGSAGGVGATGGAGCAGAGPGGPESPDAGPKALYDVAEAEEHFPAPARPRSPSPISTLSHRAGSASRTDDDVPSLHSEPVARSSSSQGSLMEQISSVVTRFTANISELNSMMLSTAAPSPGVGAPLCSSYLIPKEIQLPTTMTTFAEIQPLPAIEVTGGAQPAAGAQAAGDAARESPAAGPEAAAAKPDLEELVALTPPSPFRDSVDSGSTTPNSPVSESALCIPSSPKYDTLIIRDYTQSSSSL
Sequence of Metabotropic glutamate receptor 1 (Homo sapiens) (Q13255 19-1194 limits assumed): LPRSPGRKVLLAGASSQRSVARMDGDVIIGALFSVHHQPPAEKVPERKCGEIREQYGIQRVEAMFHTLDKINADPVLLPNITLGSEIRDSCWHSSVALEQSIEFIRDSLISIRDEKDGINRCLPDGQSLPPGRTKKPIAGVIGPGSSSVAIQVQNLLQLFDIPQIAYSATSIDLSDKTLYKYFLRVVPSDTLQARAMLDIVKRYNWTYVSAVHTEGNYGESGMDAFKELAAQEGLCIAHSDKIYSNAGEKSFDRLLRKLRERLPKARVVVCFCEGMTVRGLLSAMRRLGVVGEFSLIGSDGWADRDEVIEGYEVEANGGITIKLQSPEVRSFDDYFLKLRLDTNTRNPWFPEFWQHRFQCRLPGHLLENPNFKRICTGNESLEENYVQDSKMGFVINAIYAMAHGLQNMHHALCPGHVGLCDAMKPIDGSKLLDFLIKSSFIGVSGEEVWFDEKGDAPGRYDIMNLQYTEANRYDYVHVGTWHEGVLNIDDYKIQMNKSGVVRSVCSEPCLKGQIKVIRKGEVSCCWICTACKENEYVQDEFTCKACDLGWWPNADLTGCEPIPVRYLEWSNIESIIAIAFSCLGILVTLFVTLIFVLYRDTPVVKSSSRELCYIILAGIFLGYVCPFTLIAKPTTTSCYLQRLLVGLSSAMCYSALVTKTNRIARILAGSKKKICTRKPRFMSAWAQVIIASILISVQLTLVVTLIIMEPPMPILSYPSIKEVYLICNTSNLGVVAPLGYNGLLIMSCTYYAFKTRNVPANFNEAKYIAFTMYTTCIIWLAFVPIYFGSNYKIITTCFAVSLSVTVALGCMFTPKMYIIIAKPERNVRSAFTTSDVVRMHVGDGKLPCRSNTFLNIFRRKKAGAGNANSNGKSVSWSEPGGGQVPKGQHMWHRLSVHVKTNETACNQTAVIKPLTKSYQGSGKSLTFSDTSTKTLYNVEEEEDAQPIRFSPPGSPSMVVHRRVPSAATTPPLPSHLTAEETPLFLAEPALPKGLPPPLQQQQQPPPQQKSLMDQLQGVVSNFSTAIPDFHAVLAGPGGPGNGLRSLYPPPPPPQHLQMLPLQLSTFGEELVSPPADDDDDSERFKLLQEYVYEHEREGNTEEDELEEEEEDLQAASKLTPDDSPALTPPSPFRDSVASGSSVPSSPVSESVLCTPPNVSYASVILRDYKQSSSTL
Sequence of Metabotropic glutamate receptor 8 (Homo sapiens) (O00222 whole entry): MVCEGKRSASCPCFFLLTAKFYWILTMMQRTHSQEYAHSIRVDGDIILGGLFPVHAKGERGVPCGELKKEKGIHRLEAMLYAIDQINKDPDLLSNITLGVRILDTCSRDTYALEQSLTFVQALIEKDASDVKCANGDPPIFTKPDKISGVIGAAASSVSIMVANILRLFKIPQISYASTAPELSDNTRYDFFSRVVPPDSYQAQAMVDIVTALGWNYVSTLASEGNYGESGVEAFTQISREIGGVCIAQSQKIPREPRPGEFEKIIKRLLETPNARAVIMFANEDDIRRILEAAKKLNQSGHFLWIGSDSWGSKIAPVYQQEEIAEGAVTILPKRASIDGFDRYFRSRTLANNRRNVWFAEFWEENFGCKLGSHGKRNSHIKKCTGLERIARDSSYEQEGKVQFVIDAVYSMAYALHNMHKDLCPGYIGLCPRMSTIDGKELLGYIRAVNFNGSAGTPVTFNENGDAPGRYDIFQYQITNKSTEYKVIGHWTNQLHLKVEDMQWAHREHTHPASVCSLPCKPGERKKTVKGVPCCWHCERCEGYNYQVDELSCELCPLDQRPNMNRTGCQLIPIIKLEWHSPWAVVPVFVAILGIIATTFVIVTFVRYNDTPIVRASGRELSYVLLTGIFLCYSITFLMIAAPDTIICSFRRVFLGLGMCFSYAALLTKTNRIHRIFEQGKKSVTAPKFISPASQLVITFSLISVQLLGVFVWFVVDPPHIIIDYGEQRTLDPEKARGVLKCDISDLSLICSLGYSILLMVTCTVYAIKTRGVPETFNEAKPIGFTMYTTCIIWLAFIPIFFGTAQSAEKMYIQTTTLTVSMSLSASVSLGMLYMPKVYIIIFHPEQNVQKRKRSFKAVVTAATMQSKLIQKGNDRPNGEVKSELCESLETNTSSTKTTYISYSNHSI
Sequence of Metabotropic glutamate receptor 6 (Homo sapiens) (O15303 whole entry): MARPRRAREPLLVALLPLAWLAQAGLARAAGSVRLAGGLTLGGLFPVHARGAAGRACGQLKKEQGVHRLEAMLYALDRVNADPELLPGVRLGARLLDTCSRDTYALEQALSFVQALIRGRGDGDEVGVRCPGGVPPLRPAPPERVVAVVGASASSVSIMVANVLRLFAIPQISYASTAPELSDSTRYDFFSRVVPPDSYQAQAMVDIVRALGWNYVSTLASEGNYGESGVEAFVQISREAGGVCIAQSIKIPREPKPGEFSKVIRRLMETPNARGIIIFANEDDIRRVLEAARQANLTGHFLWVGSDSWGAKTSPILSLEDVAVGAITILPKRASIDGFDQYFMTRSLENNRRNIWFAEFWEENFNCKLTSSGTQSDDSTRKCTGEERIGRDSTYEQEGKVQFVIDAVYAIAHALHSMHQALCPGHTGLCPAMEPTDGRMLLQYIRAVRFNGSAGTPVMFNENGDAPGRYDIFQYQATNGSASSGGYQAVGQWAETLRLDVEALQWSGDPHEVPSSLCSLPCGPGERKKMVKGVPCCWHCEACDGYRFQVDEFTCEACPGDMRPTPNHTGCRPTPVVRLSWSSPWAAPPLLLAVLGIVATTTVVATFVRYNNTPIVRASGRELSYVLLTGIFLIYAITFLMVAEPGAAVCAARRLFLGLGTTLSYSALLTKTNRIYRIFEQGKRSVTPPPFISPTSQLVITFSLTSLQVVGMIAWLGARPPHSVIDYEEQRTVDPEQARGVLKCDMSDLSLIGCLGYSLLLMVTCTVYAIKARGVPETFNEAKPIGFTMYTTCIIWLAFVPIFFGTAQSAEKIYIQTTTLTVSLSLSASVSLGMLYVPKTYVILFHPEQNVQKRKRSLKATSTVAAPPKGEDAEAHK
Sequence of Metabotropic glutamate receptor 7 (Homo sapiens) (Q14831 whole entry): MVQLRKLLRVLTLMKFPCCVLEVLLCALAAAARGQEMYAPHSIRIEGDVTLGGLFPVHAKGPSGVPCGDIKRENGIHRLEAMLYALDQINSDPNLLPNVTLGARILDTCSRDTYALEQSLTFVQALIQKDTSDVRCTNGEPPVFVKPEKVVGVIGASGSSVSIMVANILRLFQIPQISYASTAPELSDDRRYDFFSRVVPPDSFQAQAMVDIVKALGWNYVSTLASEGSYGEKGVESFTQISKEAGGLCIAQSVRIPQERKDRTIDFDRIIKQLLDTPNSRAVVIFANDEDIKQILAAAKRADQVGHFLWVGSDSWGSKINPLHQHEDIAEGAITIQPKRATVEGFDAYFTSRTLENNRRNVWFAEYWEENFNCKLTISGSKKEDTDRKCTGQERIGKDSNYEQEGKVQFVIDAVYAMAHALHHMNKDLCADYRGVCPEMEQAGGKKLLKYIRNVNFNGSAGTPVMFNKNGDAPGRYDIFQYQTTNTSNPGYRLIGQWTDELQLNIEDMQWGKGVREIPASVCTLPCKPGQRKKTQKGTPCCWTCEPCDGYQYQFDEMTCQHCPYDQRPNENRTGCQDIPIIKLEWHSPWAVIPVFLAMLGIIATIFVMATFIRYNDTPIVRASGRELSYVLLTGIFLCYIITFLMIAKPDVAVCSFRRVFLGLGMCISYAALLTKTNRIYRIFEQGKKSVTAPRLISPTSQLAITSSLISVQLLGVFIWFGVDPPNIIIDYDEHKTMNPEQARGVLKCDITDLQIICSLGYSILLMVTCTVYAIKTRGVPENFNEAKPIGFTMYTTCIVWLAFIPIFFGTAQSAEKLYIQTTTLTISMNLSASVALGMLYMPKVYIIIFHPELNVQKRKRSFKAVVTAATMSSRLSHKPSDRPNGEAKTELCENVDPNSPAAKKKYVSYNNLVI

In general, IC50 refers to the concentration that inhibits the measured activity by half. As to `FC(F)(F)c1ccc(Sc2ccnc(-c3ccccn3)n2)cc1`, in data set [1] (read-out: IC50), the IC50 stood at 210 nM.

Take `Clc1ccc(Sc2ccnc(-c3ccncc3)n2)cc1`: the IC50 in data set [1] (read-out: IC50) is > 10000 nM.

For `FC(F)(F)c1cccc(Sc2ccnc(-c3ccccn3)n2)c1`, in [1] (read-out: IC50), the IC50 was found to be 550 nM.

Turning to `Clc1ccc(Sc2cccc(-c3ccccn3)n2)cc1Cl`, the IC50 entry in data set [1] is recorded as “Not Active”.

As to `Clc1ccc(Sc2nccc(-c3ccccn3)n2)cc1Cl`, in [1], the IC50 entry is listed as “Not Active”.

Take `Clc1ccc(Nc2ccnc(-c3ccccn3)n2)cc1`: the IC50 in [1] (read-out: IC50) was > 10000 nM.

Regarding `Cc1cc(Sc2ccc(Cl)cc2)nc(-c2ccccn2)n1`, the half-maximal inhibitory concentration (IC50) in [1] (read-out: IC50) was determined as 1250 nM.

As for `Clc1ccc(Sc2ccnc(-c3cccnc3)n2)cc1`, the IC50 in data set [1] (read-out: IC50) was > 10000 nM.

For `Clc1ccc(Sc2ccnc(-c3ccccn3)n2)cc1`, the concentration for half-maximal inhibition (IC50) in data set [1] (read-out: IC50) is 320 nM.

Take `Clc1ccc(Cc2ccnc(-c3ccccn3)n2)cc1`: in [1] (read-out: IC50), the IC50 was > 10000 nM.

`Clc1ccc(Sc2ccnc(-c3ccccn3)c2)cc1Cl`: the IC50 in data set [1] (read-out: IC50) came out at 2370 nM.

For `Clc1ccc(Oc2ccnc(-c3ccccn3)n2)cc1`, the IC50 in [1] (read-out: IC50) was > 10000 nM.

On to `Brc1cccc(Sc2ccnc(-c3ccccn3)n2)c1`, for which, in [1] (read-out: IC50), the IC50 was determined as 2860 nM.

For the molecule `Clc1cccc(Sc2ccnc(-c3ccccn3)n2)c1`, in data set [1] (read-out: IC50), the IC50 was found to be 620 nM.

A word on the microsomal CLint: it is the capacity of the preparation to metabolise the compound, expressed as a volume cleared per time. A high value points to faster metabolism. As for `Clc1ccc(Sc2ccnc(-c3ccccn3)n2)cc1Cl`, the microsomal CLint in data set [2] was determined as 120 µL/min/mg; in data set [3], 90 µL/min/mg. The IC50 in data set [1] (read-out: IC50) was found to be 90 nM.

As to `Fc1ccc(Sc2ccnc(-c3ccccn3)n2)cc1F`, the IC50 in [1] (read-out: IC50) was 1520 nM.

Consider `Cc1cccc(Sc2ccnc(-c3ccccn3)n2)c1`, for which, in [1] (read-out: IC50), the IC50 turned out to be 2300 nM.

With `Fc1ccc(-c2nccc(Sc3ccc(Cl)c(Cl)c3)n2)nc1`, the Activity in data set [4], in data set [5], in data set [6], in data set [7], in [8] and in data set [9] was > 25 µM in each case. Besides, the Activity in data set [10] is > 25 µM. The microsomal CLint in data set [2] stood at 90 µL/min/mg; in [3], 140 µL/min/mg. In addition, the IC50 in [1] (read-out: IC50) amounted to 80 nM.

Regarding `Cc1cccc(-c2nccc(Sc3ccc(Cl)c(Cl)c3)n2)n1`, the Activity in [4], in data set [5], in data set [6], in data set [7], in [8] and in data set [9] was > 25 µM each time. For the same molecule, the Activity in [10] is > 25 µM. Moreover, the IC50 in data set [1] (read-out: IC50) is 390 nM.

As to `OC(c1ccc(Cl)cc1)c1ccnc(-c2ccccn2)n1` (stereo not given), in data set [1] (read-out: IC50), the IC50 was > 3000 nM.

Take `CC(=O)N(c1ccc(Cl)cc1)c1ccnc(-c2ccccn2)n1`: the concentration for half-maximal inhibition (IC50) in data set [1] (read-out: IC50) is > 10000 nM.

Consider `Clc1ccc(-c2ccnc(-c3ccccn3)n2)cc1Cl`, for which the IC50 result in [1] is reported as “Not Active”.
